Assay results taken from patent US7183411B2, “Naphthol, quinoline and isoquinoline-derived urea modulators of vanilloid VR1 receptor” (Janssen Pharmaceutica N.V., priority 2002, dated 2007).

Legend:
[1] = molecular target: T1, human VR1 vanilloid receptors (Homo sapiens, UniProt Q8NER1); assay: [3H] RTX binding assay, hVR1 membranes from transfected HEK293 cells; settings: for Ki: human VR1, read-out: Receptor binding Ki
T1 construct: expressed in transfected cells; host or cells: HEK293
Experimental: Compounds of the present invention were tested for their ability to inhibit the binding of [^3H] RTX to hVR1 receptors in a [^3H] RTX binding assay as previously described (Zhang, Sui-Po. Improved ligand binding assays for vanilloid receptors. PCT Int. Appl. (2002), 29 pp. CODEN: PIXXD2 WO 0233411 A1 20020425 AN 2002:315209; Grant, Elfrida R.; Dubin, Adrienne E.; Zhang, Sui-Po; Zivin, Robert A.; Zhong, Zhong Simultaneous intracellular calcium and sodium flux imaging in human vanilloid receptor 1 (VR1)-transfected human embryonic kidney cells: a method to resolve ionic dependence of VR1-mediated cell death. Journal of Pharmacology and Experimental Therapeutics (2002), 300(1), 9–17.)
HEK293 cells were transfected with human VR1 vanilloid receptors and washed with Hank's Balanced Salt Solution, dissociated with cell dissociation buffer (Sigma), and then centrifuged at 1000×g for 5 min. Cell pellets were homogenized in cold 20 mM HEPES buffer, pH 7.4, containing 5.8 mM NaCl, 320 mM sucrose, 2 mM MgCl2, 0.75 CaCl2 and 5 mM KCl and centrifuged at 1000×g for 15 min. The resultant supernate was then centrifuged at 40000×g for 15 min. The pelleted membranes were kept in an −80° C. freezer.
Approximately 120 μg protein/ml from membranes were incubated with indicated concentrations of [^3H] RTX in 0.5 ml of the HEPES buffer (pH 7.4) containing 0.25 mg/mL fatty acid-free bovine serum albumin at 37° C. for 60 min. The reaction mixture was then cooled to 4° C., 0.1 mg α1-acid glycoprotein added to each sample and incubated at 4° C. for 15 min. The samples were centrifuged at 18500×g for 15 min. The tip of the microcentrifuge tube containing the pellet was cut off. Bound radioactivity was quantified by scintillation counting. Non-specific binding was tested in the presence of 200 nM unlabeled RTX.

human VR1 = molecular target: T2, human VR1 (Homo sapiens, UniProt Q8NER1); assay: Human VR1 functional assay (FLIPR intracellular Ca2+, capsaicin challenge); format: cell-based; settings: read-out: In vitro functional assays hIC50 or EC50
T2 construct: expressed in transfected cells; host or cells: HEK293
T2 sequence (Q8NER1 whole entry): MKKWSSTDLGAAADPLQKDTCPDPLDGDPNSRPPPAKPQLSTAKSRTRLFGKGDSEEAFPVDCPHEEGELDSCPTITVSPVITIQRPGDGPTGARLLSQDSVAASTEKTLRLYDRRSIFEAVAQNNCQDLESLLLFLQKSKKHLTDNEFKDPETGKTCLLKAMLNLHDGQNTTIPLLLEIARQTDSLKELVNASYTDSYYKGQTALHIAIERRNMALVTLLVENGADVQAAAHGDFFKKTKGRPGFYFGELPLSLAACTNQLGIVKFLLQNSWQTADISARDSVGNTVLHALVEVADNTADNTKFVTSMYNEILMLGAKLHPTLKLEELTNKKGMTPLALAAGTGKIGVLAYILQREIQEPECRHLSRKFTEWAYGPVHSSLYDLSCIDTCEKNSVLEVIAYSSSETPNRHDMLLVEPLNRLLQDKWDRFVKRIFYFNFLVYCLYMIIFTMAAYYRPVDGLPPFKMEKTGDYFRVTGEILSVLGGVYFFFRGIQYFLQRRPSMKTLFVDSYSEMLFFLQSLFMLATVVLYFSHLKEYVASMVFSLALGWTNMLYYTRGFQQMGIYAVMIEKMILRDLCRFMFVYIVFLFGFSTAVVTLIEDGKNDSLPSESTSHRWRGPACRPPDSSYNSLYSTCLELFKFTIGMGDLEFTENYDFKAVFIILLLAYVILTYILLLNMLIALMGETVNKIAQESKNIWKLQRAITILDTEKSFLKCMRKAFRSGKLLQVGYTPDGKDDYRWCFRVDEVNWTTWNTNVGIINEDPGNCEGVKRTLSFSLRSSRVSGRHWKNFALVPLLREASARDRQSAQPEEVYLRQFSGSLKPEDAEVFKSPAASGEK
Experimental: The functional activity of the test compounds was determined by measuring changes in intracellular calcium concentration using a Ca^++-sensitive fluorescent dye and FLIPR™ technology.
HEK293 Cells expressing human VR1 were grown on poly-D-lysine coated 96 well black-walled plates (BD 354640) and 2 days later loaded with Fluo-3/AM for 1 hour and subsequently tested for agonist-induced increases in intracellular Ca^2+ levels using FLIPR™ technology. […] EC50 or IC50 values were determined from dose-response studies.

T1 sequence (Q8NER1 whole entry): as above

| Ki [1] [nM] | IC50 or EC50 (human VR1) [nM] | inhibition at 1 µM ([1]; human VR1, 1 μM compound, read-out: Receptor binding % Inhibition @ 1 μM) [%] | SMILES |
| --- | --- | --- | --- |
| 5.62 | – | – | COc1ccc(C(CNC(=O)Nc2cccc3cnccc23)CC2CCCCC2)cc1 (centres unmarked) [Compound 12] |
| 18600 | 10000 | – | CN(Cc1ccccc1)C(=O)Nc1cccc2ccc(O)cc12 [Compound 26] |
| 39 | 9.4 | – | Cc1cc2c(NC(=O)NCc3cccc(C(F)(F)F)c3)cccc2cn1 [Compound 9] |
| 2.79 | – | – | O=C(NCc1ccc(Cl)cc1Cl)Nc1cccc2ccc(O)cc12 [Compound 47] |
| 7.22 | – | – | O=C(NCc1ccc(F)c(F)c1)Nc1cccc2ccc(O)cc12 [Compound 42] |
| 1.3 | 5.8 | – | CC(C)(C)c1ccc(CCNC(=O)Nc2cccc3cnccc23)cc1 [Compound 35] |
| 7340 | – | – | O=C(NCc1ccc(C(F)(F)F)cc1)Nc1cccc2cncc(Cl)c12 [Compound 59] |
| 88.7 | 36 | – | O=C(NCCc1ccc(Cl)cc1)Nc1cccc2cnccc12 [Compound 3] |
| 1.22 | 97 | – | O=C(NCCc1ccc(Cl)c(Cl)c1)Nc1cccc2ccc(O)cc12 [Compound 27] |
| – | 3700 | 11 | O=C(NCc1cccnc1)Nc1cccc2ccc(O)cc12 [Compound 15] |
| 6.03 | 11 | – | O=C(NCCc1ccc(OC(F)(F)F)cc1)Nc1cccc2cnccc12 [Compound 38] |
| 193 | 45 | – | COc1ccc(CNC(=O)Nc2cccc3cnccc23)cc1 [Compound 37] |
| 12.9 | 18 | – | Cc1cc2c(NC(=O)NCc3ccc(Cl)c(Cl)c3)cccc2cn1 [Compound 8] |
| 12.6 | 8 | – | O=C(NCCc1ccc(Cl)c(Cl)c1)Nc1cccc2cnccc12 [Compound 1] |
| 0.12 | 20 | – | CC(C)(C)c1ccc(CNC(=O)Nc2cccc3ccc(O)cc23)cc1 [Compound 13] |
| 5.16 | – | – | O=C(NCc1cc(C(F)(F)F)cc(C(F)(F)F)c1)Nc1cccc2ccc(O)cc12 [Compound 58] |
| 0.38 | 26 | – | O=C(NCc1cccc(C(F)(F)F)c1)Nc1cccc2ccc(O)cc12 [Compound 19] |

| Ki [1] [nM] | IC50 or EC50 (human VR1) [nM] | inhibition at 1 µM ([1]; human VR1, 1 μM compound, read-out: Receptor binding % Inhibition @ 1 μM) [%] | SMILES |
| --- | --- | --- | --- |
| 1290 | 680 | – | COc1ccc(CCNC(=O)Nc2cccc3cnccc23)cc1 [Compound 21] |
| 8.87 | 4 | – | O=C(NCc1ccc(Cl)c(Cl)c1)Nc1cccc2cnccc12 [Compound 5] |
| 36.1 | 44 | – | O=C(NCc1ccc(C(F)(F)F)nc1)Nc1cccc2ccc(O)cc12 [Compound 29] |
| 2540 | – | – | O=C(NCc1nc2ccccc2[nH]1)Nc1cccc2ccc(O)cc12 [Compound 32] |
| 129 | 10000 | – | CN(CC1CCCCC1)c1ccc(CNC(=O)Nc2cnc3ccccc3c2)cc1 [Compound 65] |
| 41.2 | 19 | – | O=C(NCCc1cccc(C(F)(F)F)c1)Nc1cccc2cnccc12 [Compound 2] |
| 31 | 5.6 | – | O=C(NCc1ccc(Cl)cc1)Nc1cccc2cnccc12 [Compound 6] |
| 0.11 | 27 | – | O=C(NCc1ccc(OC(F)(F)F)cc1)Nc1cccc2ccc(O)cc12 [Compound 16] |
| 3280 | – | – | O=C(Nc1cccc2ccc(O)cc12)N(Cc1ccccc1)Cc1ccccc1 [Compound 25] |
| 22.7 | 11 | – | O=C(NCc1cccc(C(F)(F)F)c1)Nc1cccc2cnccc12 [Compound 7] |
| 3.27 | 4.9 | – | O=C(NCc1ccc(Cl)cc1)Nc1cccc2ccc(O)cc12 [Compound 14] |
| 53.5 | – | – | O=C(NCCc1ccccc1)Nc1cccc2ccc(O)cc12 [Compound 23] |
| 93.5 | 45 | – | O=C(NCc1ccccc1)Nc1cccc2ccc(O)cc12 [Compound 18] |
| 2.03 | 15 | – | O=C(NCc1ccc(Cl)c(Cl)c1)Nc1cccc2ccc(O)cc12 [Compound 31] |
| 22.4 | – | – | O=C(NCCc1ccc(C(F)(F)F)cc1)Nc1cccc2cnccc12 [Compound 36] |
| 581 | – | – | CN(Cc1ccc(Cl)c(Cl)c1)C(=O)Nc1cccc2ccc(O)cc12 [Compound 30] |
